From patent US5078986A, “Method for enhancing magnetic resonance imaging using an image altering agent containing an excess of chelating agent” (Mallinckrodt Medical, Inc., priority 1990, dated 1992)
“Also recorded” adds a separate entry of the source. Read-outs that look alike come from different tables or passages of the source.

What was measured:
[1] = Biodistribution of 54Mn radioactivity in rats (Example 5); assay type: in vivo, Sprague-Dawley rat
From the text: A total of forty Sprague-Dawley rats (20 male, 217-295 g; 20 female, 151-208 g; Charles River) were used. Drinking water was provided ad libitum. The animals, 2 males and 2 females per group, were selected randomly from their cages and were identified with indelible ink numbers at tail bases before test substance administration.
Rats were divided into 10 groups consisting of 2 male and 2 female rats per group. […] Immediately after dosing, rats were housed in individual metabolism cages. Ground Purina Laboratory Chow and water were supplied ad libitum to animals sacrificed at 24 and 48 hr after treatment. Rats from both ^54 NmNa2 EDTA and ^54 Mn-L treatment groups were sacrificed by cervical dislocation at 0.5, 2, 4, 24 and 48 hr after treatment, and the following samples were obtained: injection site, blood, liver, lung, spleen, heart, kidneys, salivary gland (submaxillary), brain, bone with marrow, muscle and fat. Urine samples were obtained from animals sacrificed at all intervals of 2 hr or more after injection and fecal samples were obtained from animals sacrificed at 24 and 48 hr after treatment. […] The entire organ weights were determined for the remaining tissues.
Levels of radioactivity in the biological specimens and aliquots of the injected test substances were determined using a gamma scintillation spectrometer (Model 1085, Nuclear Chicago Corp., Des Plaines, Ill.). Results were calculated on a percent dose/organ (or fluid) and a percent dose/g (or ml) basis using an HP-85 desk top computer (Hewlett Packard, Fort Collins, Colo.).
Kinetic data for the elimination of radioactivity from liver, spleen, kidneys, heart and bone with marrow were curve fitted by the peeling and least-square methods, to mono or bi-exponential equations: [formula] Where Ct=% dose/organ in tissue at time t.
Ai=Concentration at time 0 of the line described by each first order term.
Ki=Elimination rate constant for each first-order term.
The half-life (t 1/2) for each elimination phase was calculated as 0.693/Ki. The square of the correlation coefficient (r^2) for each elimination phase was calculated as an indication of variability.

[2] = test system: mice; experiment: Acute intravenous toxicity in mice (Example 4); details: i.v.; for Average Change in Body Wt. of Survivors: 7 days; for LD50: 7-day observation
Experimental: In addition, the cardiotoxic effects of single bolus intracoronary arterial injections of 4, 8, 16 or 32 mg MnCl2 were evaluated in the isolated perfused rabbit heart (IPRH).
The aqueous vehicle for the suspension of negatively charged liposomes consisted of 0.9% NaCl buffered with 0.003M sodium phosphate, pH 7.4. The lipid concentration was 50 μmol/ml.
A total of 60 mice, 30 males (body weight range of 20-33.5 g) and 30 females (body weight range of 19.1-29.7 g) were used. Fifty of the mice were Swiss ICR, CD-1, obtained from Charles River and ten were Swiss CF-1 obtained from Sasco (Omaha, Nebr.).
The four test substances were administered via the lateral tail vein of the mouse at a rate of 1 ml/min with the following doses given.

[3] = test system: isolated perfused rabbit heart
[4] = 32 mg, 0-15 S, only 1 heart, all others had VF

## O=C([O-])CN(CCN(CC(=O)[O-])CC(=O)[O-])CC(=O)[O-].[54Mn+2].[Na+].[Na+] [^54 MnNa2 EDTA]
[1]; 2 of 4 rats at 0.5, 2 and 4 hr
  Radioactivity in fat (in words): Unusually high levels of radioactivity
[1]; after 48 hr
  Localization of remaining radioactivity: primarily localized in the bone and marrow
[1]; after the initial 2 hr
  Urinary excretion at later time intervals: no additional urinary excretion of radioactivity was observed
[1]; by 2 hr after treatment
  Blood clearance at 2 hr (in words): almost completely cleared from the blood
[1]; rat, i.v.
  Blood clearance (in words): rapidly cleared from the blood
  Bone and marrow half-life: > 100 h
  Distribution, percent dose/organ (in words): distributed primarily to the liver, bone with marrow, muscle and kidneys
  Fraction associated with rapid first phase hepatic elimination: Approximately 92%
  Fraction associated with rapid first phase renal elimination: Approximately 81%
  Heart half-life, monophasic elimination: approximately 8 hr
  Hepatic t 1/2, initial rapid elimination: < 1 h
  Hepatic t 1/2, secondary slow elimination phase: > 17 h
  Renal t 1/2, initial rapid elimination: < 1 h
  Renal t 1/2, secondary slow elimination phase: > 17 h
  Spleen half-life, monophasic elimination: ~ 2 hr
[1]; within 2 hr after treatment
  Dose eliminated in the urine: > 50 % of the dose
[1]; within 48 hr after treatment
  Total dose excreted in the feces: 31%

## [Cl][Mn][Cl] [MnCl2, manganese(II)chloride]
[2]; female, 25 mg/kg
  Cumulative 7-Day Mortalities/Number Dosed: 1/5
  Average Change in Body Wt. of Survivors: 2.7 g
[2]; female, 31.25 mg/kg
  Cumulative 7-Day Mortalities/Number Dosed: 4/5
  Average Change in Body Wt. of Survivors: 3.5 g
[2]; female, 37.5 mg/kg
  Cumulative 7-Day Mortalities/Number Dosed: 4/5
  Average Change in Body Wt. of Survivors: 3.6 g
[2]
  Acute intravenous toxicity (in words): high degree of acute toxicity
  Cause of death: cardiac arrest the probable cause of death
  Convulsions: Transient convulsions, of moderate severity; also recorded: convulsions the primary pharmacotoxic sign
  Time of the one delayed death after dosing: 4 days
[2]; 10080 min
  LD50: 28 mg/kg
[2]; listed as 1, 10080 min
  LD50: 28.0 mg/kg
[2]; mmol/kg of Mn(II), 10080 min
  LD50 expressed as Mn(II): 0.22 mmol/kg
[2]; male, 25 mg/kg
  Cumulative 7-Day Mortalities/Number Dosed: 3/5
  Average Change in Body Wt. of Survivors: 1.2 g
[2]; male, 31.25 mg/kg
  Cumulative 7-Day Mortalities/Number Dosed: 2/5
  Average Change in Body Wt. of Survivors: 4.6 g
[2]; male, 37.5 mg/kg
  Cumulative 7-Day Mortalities/Number Dosed: 4/5
  Average Change in Body Wt. of Survivors: 3.4 g
[3]; 4 mg
  Incidence of Ventricular Fibrillation (VF): 0/6
[3]; 4 mg, 0-15 S
  Mean % Change in Contractile Force (CF): -5%
  Mean % Change in Heart Rate (HR): -2%
[3]; 4 mg, 15-30 S
  Mean % Change in Contractile Force (CF): -28%
  Mean % Change in Heart Rate (HR): -2%
[3]; 4 mg, 1 min
  Mean % Change in Contractile Force (CF): -12%
  Mean % Change in Heart Rate (HR): -4%
[3]; 4 mg, 2 min
  Mean % Change in Contractile Force (CF): +5%
  Mean % Change in Heart Rate (HR): -2%
[3]; 8 mg
  Incidence of Ventricular Fibrillation (VF): 0/6
[3]; 8 mg, 0-15 S
  Mean % Change in Contractile Force (CF): -74%
  Mean % Change in Heart Rate (HR): -8%
[3]; 8 mg, 15-30 S
  Mean % Change in Contractile Force (CF): -38%
  Mean % Change in Heart Rate (HR): -7%
[3]; 8 mg, 1 min
  Mean % Change in Contractile Force (CF): -17%
  Mean % Change in Heart Rate (HR): -7%
[3]; 8 mg, 2 min
  Mean % Change in Contractile Force (CF): +2%
  Mean % Change in Heart Rate (HR): -6%
[3]; 16 mg
  Incidence of Ventricular Fibrillation (VF): 2/6
[3]; 16 mg, 0-15 S
  Mean % Change in Contractile Force (CF): -92%
  Mean % Change in Heart Rate (HR): -31%
[3]; 16 mg, 15-30 S
  Mean % Change in Contractile Force (CF): -61%
  Mean % Change in Heart Rate (HR): -14%
[3]; 16 mg, 1 min
  Mean % Change in Contractile Force (CF): -37%
  Mean % Change in Heart Rate (HR): -14%
[3]; 16 mg, 2 min
  Mean % Change in Contractile Force (CF): -1%
  Mean % Change in Heart Rate (HR): -11%
[3]; 16 mg, hearts which did not fibrillate
  Premature ventricular contractions: two of the four hearts which did not fibrillate had premature ventricular contractions
[3]; 32 mg
  Incidence of Ventricular Fibrillation (VF): 5/6
[3]; [4]
  Mean % Change in Contractile Force (CF): -100%
  Mean % Change in Heart Rate (HR): -100%
[3]; 32 mg, 15-30 S
  Mean % Change in Contractile Force (CF): -64%
  Mean % Change in Heart Rate (HR): -17%
[3]; 32 mg, 1 min
  Mean % Change in Contractile Force (CF): -33%
  Mean % Change in Heart Rate (HR): -17%
[3]; 32 mg, 2 min
  Mean % Change in Contractile Force (CF): +2%
  Mean % Change in Heart Rate (HR): -14%
[3]; 32 mg, the single heart which failed to fibrillate
  A-V conduction block: complete A-V conduction block with ventricular standstill
[3]; 4-32 mg intracoronary
  Incidence of arrhythmias (in words): dose-related incidence of arrhythmias
  Period of maximal CF and HR effects after injection: 0 to 15 s
[3]; 4 and 8 mg
  Arrhythmias at the lower two doses: No arrhythmias were observed
[3]; CF and HR
  Time to return to control or stabilization at new baseline: two
[3]; ECG
  PR and QRS intervals: dose-related increases in PR and QRS intervals
[3]; exception: a 32 mg dose
  Reversion of VF: did revert spontaneously to normal sinus rhythm in each instance but one
